Data: patent US20090232838A1, “Ligands of melanocortin receptors” (priority 2005, published 2009)
Read-outs that look alike come from different tables or passages of the source. Where a SMILES comes first, the peptide text is derived from it. Bridges are numbered along the chain shown (N, C = ends). [ ]: non-standard residue; d: D form. 1Nal = N[C@@H](Cc1cccc2ccccc12)C(=O)O; 2Nal = N[C@@H](Cc1ccc2ccccc2c1)C(=O)O; d2Nal = N[C@H](Cc1ccc2ccccc2c1)C(=O)O; Bta = N[C@@H](Cc1csc2ccccc12)C(=O)O; Aib = CC(C)(N)C(=O)O

Key:
hMC1-R = target: T1, hMC1-R (Homo sapiens, UniProt Q01726); experiment: cyclic AMP bioassay, hMC1-R; type: cell-based
T1 construct: expressed in transfected cells; host or cells: CHO-K1

hMC3-R [1] = target: T2, hMC3-R (Homo sapiens, UniProt P41968); experiment: cyclic AMP bioassay, hMC3-R; type: cell-based
T2 construct: expressed in transfected cells; host or cells: CHO-K1

hMC4-R [2] = target: T3, hMC4-R (Homo sapiens, UniProt P32245); experiment: cyclic AMP bioassay, hMC4-R; type: cell-based
T3 construct: expressed in transfected cells; host or cells: CHO-K1

hMC5-R = target: T4, hMC5-R (Homo sapiens, UniProt P33032); experiment: cyclic AMP bioassay, hMC5-R; type: cell-based
T4 construct: expressed in transfected cells; host or cells: CHO-K1

hMC3-R [3] = target: T2, hMC3-R; experiment: Radioligand binding assay, hMC3-R
Experimental: (§1) Cellular membranes used for the in vitro receptor binding assays were obtained from transgenic CHO-K1 cells stably expressing hMC-R receptor subtypes 1, 3, 4 or 5. […] The pellets were resuspended in the same buffer and centrifuged at 50,000 g for 10 minutes at approximately 4° C. The washed pellets containing the cellular membranes were stored at approximately −80° C.
(§2) Filters were washed three times with 50 mM Tris-HCl at p-H 7.4 at a temperature of approximately 0-4° C. and then assayed for radioactivity using a Packard Topcount® scintillation counter. Binding data were analyzed by computer-assisted non-linear regression analysis (XL fit; IDBS).

hMC4-R [4] = target: T3, hMC4-R; experiment: Radioligand binding assay, hMC4-R
Experimental: as §1, §2

[5] = Table 3A, cAMP in CHO-K1 cells, agonist, read-out: EC50 hMC1-R
[6] = Table 3A, cAMP in CHO-K1 cells, antagonist potency by Schild analysis, read-out: Kb hMC3-R
[7] = Table 3A, cAMP in CHO-K1 cells, antagonist potency by Schild analysis, read-out: Kb hMC4-R
[8] = Table 3A, cAMP in CHO-K1 cells, agonist, read-out: EC50 hMC5-R

T1 sequence (Q01726 whole entry): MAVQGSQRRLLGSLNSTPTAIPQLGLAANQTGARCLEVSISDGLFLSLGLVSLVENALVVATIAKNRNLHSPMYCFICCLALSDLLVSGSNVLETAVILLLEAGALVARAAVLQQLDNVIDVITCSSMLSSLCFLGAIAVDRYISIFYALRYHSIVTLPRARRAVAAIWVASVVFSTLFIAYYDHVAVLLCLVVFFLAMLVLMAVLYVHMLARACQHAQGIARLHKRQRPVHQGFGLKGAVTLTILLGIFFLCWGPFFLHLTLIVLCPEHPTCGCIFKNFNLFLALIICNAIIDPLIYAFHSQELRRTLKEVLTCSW
T2 sequence (P41968 whole entry): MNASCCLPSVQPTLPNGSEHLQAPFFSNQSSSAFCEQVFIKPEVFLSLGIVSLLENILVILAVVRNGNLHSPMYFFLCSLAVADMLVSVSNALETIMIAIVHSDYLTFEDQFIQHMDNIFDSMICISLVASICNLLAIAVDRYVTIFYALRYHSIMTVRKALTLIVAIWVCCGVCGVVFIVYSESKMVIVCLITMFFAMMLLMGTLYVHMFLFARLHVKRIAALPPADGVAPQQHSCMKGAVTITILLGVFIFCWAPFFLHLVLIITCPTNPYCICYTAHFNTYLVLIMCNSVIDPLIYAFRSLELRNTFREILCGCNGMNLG
T3 sequence (P32245 whole entry): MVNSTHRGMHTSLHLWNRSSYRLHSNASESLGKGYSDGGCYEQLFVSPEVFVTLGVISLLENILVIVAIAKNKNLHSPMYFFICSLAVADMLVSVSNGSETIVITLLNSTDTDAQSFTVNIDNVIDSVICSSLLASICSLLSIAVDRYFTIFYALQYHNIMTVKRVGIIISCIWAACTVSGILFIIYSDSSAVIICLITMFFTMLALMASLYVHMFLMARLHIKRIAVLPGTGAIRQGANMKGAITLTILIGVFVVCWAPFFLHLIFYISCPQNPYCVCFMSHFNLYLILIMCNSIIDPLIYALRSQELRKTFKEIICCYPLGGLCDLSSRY
T4 sequence (P33032 whole entry): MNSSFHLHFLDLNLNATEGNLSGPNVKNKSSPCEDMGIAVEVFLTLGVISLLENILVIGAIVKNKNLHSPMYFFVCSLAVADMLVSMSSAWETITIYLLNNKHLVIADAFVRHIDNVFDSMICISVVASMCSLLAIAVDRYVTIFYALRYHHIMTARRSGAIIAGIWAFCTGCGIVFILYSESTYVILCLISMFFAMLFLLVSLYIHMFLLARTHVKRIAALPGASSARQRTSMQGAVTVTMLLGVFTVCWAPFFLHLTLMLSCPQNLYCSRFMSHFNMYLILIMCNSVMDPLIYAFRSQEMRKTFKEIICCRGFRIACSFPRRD

| SMILES | EC50 (hMC1-R; [5]) | Kb (hMC3-R [1]; [6]) | Kb (hMC4-R [2]; [7]) | EC50 (hMC5-R; [8]) | EC50 (hMC1-R) | EC50 (hMC5-R) | Kb (hMC3-R [1]) | Kb (hMC4-R [2]) | further results |
| --- | --- | --- | --- | --- | --- | --- | --- | --- | --- |
| CCCC[C@H](NC(C)=O)C(=O)N[C@H]1CC(=O)NCCCC[C@@H](C(=O)NCCOCCOCC(=O)NCCOCCOCC(=O)N[C@@H](Cc2ccc(O)cc2)C(=O)NCC(=O)N[C@@H](CCCNC(=N)N)C(=O)N[C@@H](CCCCN)C(=O)N[C@@H](CCCCN)C(=O)N[C@@H](CCCNC(=N)N)C(=O)N[C@@H](CCCNC(=N)N)C(=O)N[C@@H](CCC(N)=O)C(=O)N[C@@H](CCCNC(=N)N)C(=O)N[C@@H](CCCNC(=N)N)C(=O)N[C@@H](CCCNC(=N)N)C(N)=O)NC(=O)[C@H](Cc2c[nH]c3ccccc23)NC(=O)[C@H](CCCNC(=N)N)NC(=O)[C@@H](Cc2ccc3ccccc3c2)NC(=O)[C@H](Cc2c[nH]cn2)NC1=O | 3.23 nM | 8.97 nM | 4.61 nM | 2.86 nM |  |  |  |  |  |
| CCCC[C@H](NC(C)=O)C(=O)N[C@H]1CSSC[C@@H](C(=O)NCCC(=O)NCC(=O)N[C@@H](CCCNC(=N)N)C(=O)N[C@@H](CCCCN)C(=O)N[C@@H](CCCNC(=N)N)C(=O)N[C@@H](CCCNC(=N)N)C(=O)N[C@@H](CCCNC(=N)N)C(=O)N[C@@H](CCC(N)=O)C(=O)N[C@@H](CCCNC(=N)N)C(=O)N[C@@H](CCCNC(=N)N)C(=O)N[C@@H](CCCNC(=N)N)C(N)=O)NC(=O)[C@H](Cc2c[nH]c3ccccc23)NC(=O)[C@H](CCCNC(=N)N)NC(=O)[C@@H](Cc2ccccc2)NC(=O)[C@H](Cc2c[nH]cn2)NC(=O)[C@@H](C)NC1=O |  |  |  |  | 2.81 nM | 566 nM |  |  | Ki (hMC3-R [3]): 1.21 nM; Ki (hMC4-R [4]): 0.293 nM; EC50 (hMC3-R [1]): 3.29 nM; EC50 (hMC4-R [2]): 0.298 nM |
| CC(=O)N[C@H]1CSSC[C@@H](C(=O)N2CCC[C@H]2C(=O)N2CCC[C@H]2C(=O)N[C@@H](CCCNC(=N)N)C(=O)N[C@@H](CC(=O)O)C(=O)NCCC(=O)N[C@@H](CCCNC(=N)N)C(=O)N[C@@H](CCCNC(=N)N)C(=O)N[C@@H](CCCNC(=N)N)C(=O)N[C@@H](CCCNC(=N)N)C(=O)N[C@@H](CCCNC(=N)N)C(=O)N[C@@H](CCC(N)=O)C(=O)N[C@@H](CCCNC(=N)N)C(=O)N[C@@H](CCCNC(=N)N)C(=O)N[C@@H](CCCNC(=N)N)C(N)=O)NC(=O)[C@H](C)NC(=O)[C@H](Cc2cccc3ccccc23)NC(=O)[C@H](CCCNC(=N)N)NC(=O)[C@@H](Cc2ccc3ccccc3c2)NC(=O)[C@H](Cc2c[nH]cn2)NC(=O)[C@H](CCC(=O)O)NC1=O |  |  |  |  | 144 nM | 819 nM | 116 nM | 8.93 nM | Ki (hMC4-R [4]): 0.293 nM |
| CC(=O)N[C@H]1CSSC[C@@H](C(=O)N2CCC[C@H]2C(=O)N2CCC[C@H]2C(=O)N[C@@H](CCCCN)C(=O)N[C@@H](CC(=O)O)C(=O)NCCC(=O)N[C@@H](Cc2ccc(O)cc2)C(=O)NCC(=O)N[C@@H](CCCNC(=N)N)C(=O)N[C@@H](CCCCN)C(=O)N[C@@H](CCCNC(=N)N)C(=O)N[C@@H](CCCNC(=N)N)C(=O)N[C@@H](CCCNC(=N)N)C(=O)N[C@@H](CCC(N)=O)C(=O)N[C@@H](CCCNC(=N)N)C(=O)N[C@@H](CCCNC(=N)N)C(=O)N[C@@H](CCCNC(=N)N)C(N)=O)NC(=O)[C@H](C)NC(=O)[C@H](Cc2cccc3ccccc23)NC(=O)[C@H](CCCNC(=N)N)NC(=O)[C@@H](Cc2ccc3ccccc3c2)NC(=O)[C@H](Cc2c[nH]cn2)NC(=O)[C@H](CCC(=O)O)NC1=O |  |  |  |  | 102 nM | 261 nM | 26.3 nM | 14.6 nM | Ki (hMC3-R [3]): 1.61 nM |
| CC(=O)N[C@H]1CSSC[C@@H](C(=O)N2CCC[C@H]2C(=O)N2CCC[C@H]2C(=O)N[C@@H](CCCCN)C(=O)N[C@@H](CC(=O)O)C(=O)NCCC(=O)N[C@@H](Cc2ccc(O)cc2)C(=O)NCC(=O)N[C@@H](CCCNC(=N)N)C(=O)N[C@@H](CCCCN)C(=O)N[C@@H](CCCCN)C(=O)N[C@@H](CCCNC(=N)N)C(=O)N[C@@H](CCCNC(=N)N)C(=O)N[C@@H](CCC(N)=O)C(=O)N[C@@H](CCCNC(=N)N)C(=O)N[C@@H](CCCNC(=N)N)C(=O)N[C@@H](CCCNC(=N)N)C(N)=O)NC(=O)[C@H](C)NC(=O)[C@H](Cc2c[nH]c3ccccc23)NC(=O)[C@H](CCCNC(=N)N)NC(=O)[C@@H](Cc2ccc3ccccc3c2)NC(=O)[C@H](Cc2c[nH]cn2)NC(=O)[C@H](CCC(=O)O)NC1=O | 6.3 nM | 70 nM | 1.66 nM | 38.2 nM |  |  |  |  |  |
| CC(=O)N[C@H]1CSSC[C@@H](C(=O)N2CCC[C@H]2C(=O)N2CCC[C@H]2C(=O)N[C@@H](CCCCN)C(=O)N[C@@H](CC(=O)O)C(=O)NCCOCCOCC(=O)N[C@@H](Cc2ccc(O)cc2)C(=O)NCC(=O)N[C@@H](CCCNC(=N)N)C(=O)N[C@@H](CCCCN)C(=O)N[C@@H](CCCCN)C(=O)N[C@@H](CCCNC(=N)N)C(=O)N[C@@H](CCCNC(=N)N)C(=O)N[C@@H](CCC(N)=O)C(=O)N[C@@H](CCCNC(=N)N)C(=O)N[C@@H](CCCNC(=N)N)C(=O)N[C@@H](CCCNC(=N)N)C(N)=O)NC(=O)[C@H](C)NC(=O)[C@H](Cc2c[nH]c3ccccc23)NC(=O)[C@H](CCCNC(=N)N)NC(=O)[C@@H](Cc2ccc3ccccc3c2)NC(=O)[C@H](Cc2c[nH]cn2)NC(=O)[C@H](CCC(=O)O)NC1=O | 12.1 nM | 30.3 nM | 1.81 nM | 70 nM |  |  |  |  |  |
| CCCC[C@H](N)C(=O)N[C@H]1CC(=O)NCCCC[C@@H](C(=O)NCCOCCOCC(=O)NCCOCCOCC(=O)N[C@@H](Cc2ccc(O)cc2)C(=O)NCC(=O)N[C@@H](CCCNC(=N)N)C(=O)N[C@@H](CCCCN)C(=O)N[C@@H](CCCCN)C(=O)N[C@@H](CCCNC(=N)N)C(=O)N[C@@H](CCCNC(=N)N)C(=O)N[C@@H](CCC(N)=O)C(=O)N[C@@H](CCCNC(=N)N)C(=O)N[C@@H](CCCNC(=N)N)C(=O)N[C@@H](CCCNC(=N)N)C(N)=O)NC(=O)[C@H](Cc2c[nH]c3ccccc23)NC(=O)[C@H](CCCNC(=N)N)NC(=O)[C@@H](Cc2ccc3ccccc3c2)NC(=O)[C@H](Cc2c[nH]cn2)NC1=O |  | 261 nM | 3.11 nM |  |  |  |  |  | Ki (hMC4-R [4]; read-out: Ki hMC4-R): 6 nM |
| CC(=O)N[C@H]1CSSC[C@@H](C(=O)N2CCC[C@H]2C(=O)N2CCC[C@H]2C(=O)N[C@@H](CCCCN)C(=O)N[C@@H](CC(=O)O)C(N)=O)NC(=O)[C@H](C)NC(=O)[C@H](Cc2cccc3ccccc23)NC(=O)[C@H](CCCNC(=N)N)NC(=O)[C@@H](Cc2ccc3ccccc3c2)NC(=O)[C@H](Cc2c[nH]cn2)NC(=O)[C@H](CCC(=O)O)NC1=O [Ac-c(Cys-Glu-His-D-2-Nal-Arg-1-Nal-Ala-Cys)-Pro-Pro-Lys-Asp-NH2] (Ac-CEH[d2Nal]R[1Nal]ACPPKD-NH2; disulfide 1-8) |  |  |  |  | 269 nM | 104 nM | 105 nM | 5.92 nM |  |
| CC(=O)N[C@H]1CSSC[C@@H](C(=O)N2CCC[C@H]2C(=O)N2CCC[C@H]2C(=O)N[C@@H](CCCCN)C(=O)N[C@@H](CC(=O)O)C(N)=O)NC(=O)C(C)(C)NC(=O)[C@H](Cc2ccc3ccccc3c2)NC(=O)[C@H](CCCNC(=N)N)NC(=O)[C@@H](Cc2ccc3ccccc3c2)NC(=O)[C@H](Cc2c[nH]cn2)NC(=O)[C@H](CCC(=O)O)NC1=O [Ac-c(Cys-Glu-His-D-2-Nal-Arg-2-Nal-Aib-Cys)-Pro-Pro-Lys-Asp-NH2] (Ac-CEH[d2Nal]R[2Nal][Aib]CPPKD-NH2; disulfide 1-8) |  |  |  |  | 770 nM | 869 nM | 221 nM | 4.52 nM | Ki (hMC4-R [4]): 5.87 nM |
| CC(=O)N[C@H]1CSSC[C@@H](C(=O)N2CCC[C@H]2C(=O)N2CCC[C@H]2C(=O)N[C@@H](CCCCN)C(=O)N[C@@H](CC(=O)O)C(N)=O)NC(=O)[C@H](C)NC(=O)[C@H](Cc2ccc3ccccc3c2)NC(=O)[C@H](CCCNC(=N)N)NC(=O)[C@@H](Cc2ccc3ccccc3c2)NC(=O)[C@H](Cc2c[nH]cn2)NC(=O)[C@H](CCC(=O)O)NC1=O [Ac-c(Cys-Glu-His-D-2-Nal-Arg-2-Nal-Ala-Cys)-Pro-Pro-Lys-Asp-NH2] (Ac-CEH[d2Nal]R[2Nal]ACPPKD-NH2; disulfide 1-8) |  |  |  |  | 33.6 nM | 66.9 nM | 140 nM | 12.2 nM |  |
| CC(=O)N[C@H]1CSSC[C@@H](C(=O)N2CCC[C@H]2C(=O)N2CCC[C@H]2C(=O)N[C@@H](CCCCN)C(=O)N[C@@H](CC(=O)O)C(N)=O)NC(=O)[C@H](C)NC(=O)[C@H](Cc2csc3ccccc23)NC(=O)[C@H](CCCNC(=N)N)NC(=O)[C@@H](Cc2ccc3ccccc3c2)NC(=O)[C@H](Cc2c[nH]cn2)NC(=O)[C@H](CCC(=O)O)NC1=O [Ac-c(Cys-Glu-His-D-2-Nal-Arg-Bal-Ala-Cys)-Pro-Pro-Lys-Asp-NH2] (Ac-CEH[d2Nal]R[Bta]ACPPKD-NH2; disulfide 1-8) |  |  |  |  | 690 nM | 177 nM | 70.7 nM | 4.56 nM |  |
| CC(=O)N[C@H]1CSSC[C@@H](C(=O)N2CCC[C@H]2C(=O)N2CCC[C@H]2C(=O)N[C@@H](CCCCN)C(=O)N[C@@H](CC(=O)O)C(N)=O)NC(=O)[C@H](C)NC(=O)[C@H](Cc2c[nH]c3ccccc23)NC(=O)[C@H](CCCNC(=N)N)NC(=O)[C@@H](Cc2ccc3ccccc3c2)NC(=O)[C@H](Cc2c[nH]cn2)NC(=O)[C@H](CCC(=O)O)NC1=O [Ac-c(Cys-Glu-His-D-2-Nal-Arg-Trp-Ala-Cys)-Pro-Pro-Lys-Asp-NH2] (Ac-CEH[d2Nal]RWACPPKD-NH2; disulfide 1-8) | 66.1 nM | 33.4 nM | 0.687 nM | 6.84 nM |  |  |  |  |  |
